GI50 and TGI data for seven compounds are collected here from PubChem BioAssay (NCI).

Assay in all cases: NCI anticancer screen, dose series, 48 h
The test system of experiment [1] is U251 CNS.
The test system of experiment [2] is NCI/ADR-RES ovarian.
Experiment [3] deals with MDA-MB-231 breast.
Experiment [4] relates to 786-0 renal.
The test system of experiment [5] is LOX IMVI melanoma.
The subject of experiment [6] is OVCAR-3 ovarian.
The subject of experiment [7] is HL-60(TB) leukemia.
Experiment [8] deals with SN12C renal.
Experiment [9] has as its system NCI-H522 lung.
The subject of experiment [10] is SK-MEL-2 melanoma.

“And” between values parts separate entries of the source, which are not always exact repeats. Equal entries are not always repeated.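 Protocol summary: plate cells (96-well), add compound at 5 concentrations, incubate 48 h, interpolate endpoints linearly. The concentration for 50% growth inhibition is given as GI50. TGI denotes the concentration required for complete inhibition of growth.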 A value given as a limit tells only on which side of the number the result lay.

In the case of `O=C(c1cccs1)c1c(C(F)(F)F)n([O-])c2cc(Cl)c(Cl)cc2[n+]1=O`, the GI50 in [1] is 0.269 µM; in experiment [2], 1.05 µM; in experiment [3], 0.647 µM; in [4], 0.756 µM; in experiment [5], 0.0703 µM; in experiment [6] it was 0.668 µM. Moreover, the GI50 in [7] was 0.362 µM; in [8], 1.31 µM; in experiment [9], 0.55 µM; in [10], 2.7 µM. Besides, the TGI in experiment [1] was found to be 1.66 µM; in experiment [2], 2.55 µM; in [3] it was 2.07 µM; in experiment [4] it was 1.91 µM; in experiment [5], 0.493 µM; in experiment [6], 1.82 µM. Further, the TGI was 3.53 µM in experiment [7], 2.83 µM in experiment [8], 2.2 µM in experiment [9] and more than 100 µM in experiment [10].

As to `CN(C)c1ccc(-c2cc(-c3ccc(Nc4nc(Nc5ccc(Cl)cc5)nc(Nc5ccc(Cl)cc5)n4)cc3)nc(N)c2C#N)cc1`, the GI50 in experiment [1] is 10.7 µM; in [2], more than 100 µM; in experiment [3] it was 5.51 µM; in experiment [4] it was 16.7 µM; in [5], 18.9 µM; in experiment [6], 13.6 µM. Also, the GI50 in experiment [7] is 10.6 µM; in [8], 13.8 µM; in [9], 48.4 µM; in experiment [10] it was 10.8 µM. Also, the TGI is more than 100 µM in experiment [1]; more than 100 µM in experiment [2]; 60.3 µM in experiment [3]; more than 100 µM in experiment [4]; more than 100 µM in experiment [5]; 92 µM in experiment [6]. The TGI in [7] was more than 100 µM; in experiment [8], more than 100 µM; in experiment [9], more than 100 µM; in [10], 86.7 µM.

On to `COc1ccc(/C=C2\CCC/C(=C\c3ccc(OC)c(OC)c3)C2=O)cc1OC`, for which the GI50 in [1] is 1.4 µM; in [2], 1.18 µM; in experiment [3], 10.5 µM; in [4] it was 5.59 µM; in experiment [5] it was 1.15 µM; in experiment [6], 2.17 µM. The GI50 is 2.25 µM in [7], 8.79 µM in experiment [8], 2.19 µM in experiment [9] and 5.02 µM in experiment [10]. Moreover, the TGI in experiment [1] is more than 32.5 µM; in experiment [2] it was 17.5 µM; in experiment [3], more than 32.5 µM; in [4], more than 32.5 µM; in [5], 9.02 µM; in experiment [6] it was more than 32.5 µM. For the same compound, the TGI was more than 32.5 µM in experiment [7], more than 32.5 µM in [8], 15.4 µM in experiment [9] and 15.2 µM in experiment [10].

Turning to `CC[C@H](C)[C@H](NC(=O)[C@H]1CCCCN1C)C(=O)N(C)[C@H](C[C@@H](OC(C)=O)c1nc(C(=O)NC23CC(C(=O)OC)(C2)C3)cs1)C(C)C`, the GI50 in experiment [1] is 0.00083 µM and 0.00325 µM; in [2] it was 0.0522 µM and 0.0479 µM; in [3], 0.00163 µM and 0.00363 µM; in experiment [4] it was 0.00064 µM and 0.00325 µM; in experiment [5] it was 0.00054 µM and 0.00325 µM; in experiment [6] it was 0.000256 µM and < 0.00325 µM. Besides, the GI50 in experiment [7] is 0.000186 µM and < 0.00325 µM; in experiment [8], 0.000654 µM and 0.00325 µM; in experiment [9], 0.000156 µM and < 0.00325 µM; in experiment [10] it was 0.00102 µM and 0.00325 µM. The TGI in [1] was more than 32.5 µM; in experiment [2] it was 0.371 µM; in [3] it was more than 32.5 µM; in [4], more than 32.5 µM; in experiment [5], more than 32.5 µM; in experiment [6] it was 0.0158 µM and < 0.00325 µM. For the same compound, the TGI is 0.000698 µM and < 0.00325 µM in experiment [7]; more than 32.5 µM in experiment [8]; 0.000901 µM and < 0.00325 µM in [9]; 0.0347 µM in experiment [10].

For `CCCCCCCCCCCC[C@@H](O)[C@H]1CC[C@H]([C@H](O)CC[C@H](O)[C@@H]2CC[C@@H](CCCCCCCC3=C[C@H](C)OC3=O)O2)O1`, the GI50 in experiment [1] was 8.63 µM; in experiment [2], 2.12 µM; in experiment [4] it was 6.4 µM; in [5], 1.13 µM; in experiment [6] it was 2.78 µM; in experiment [7], more than 50 µM. Besides, in experiment [8], the GI50 was more than 50 µM. Further, the TGI in experiment [1] was more than 50 µM; in [2], more than 50 µM; in [3] it was more than 50 µM; in experiment [4], more than 50 µM; in experiment [6], more than 50 µM; in experiment [7], 5.85 µM and > 50 µM. Besides, the TGI in experiment [8], in [9] and in experiment [10] was more than 50 µM in each case.

In the case of `COCCN(CCOC)c1nc(-c2ccccc2)nc2ccccc12`, the GI50 was 70.1 µM in experiment [1]; 21.3 µM in experiment [2]; 59.4 µM in experiment [3]; 25.6 µM in experiment [4]; 34.7 µM in experiment [5]; 31.3 µM in [6]. Besides, the GI50 was 30.3 µM in [7], 29.1 µM in experiment [8], 21.6 µM in experiment [9] and 19.2 µM in experiment [10]. Also, the TGI in experiment [1] is more than 100 µM; in experiment [2] it was 61.2 µM; in [3] it was more than 100 µM; in experiment [4] it was more than 100 µM; in experiment [5] it was more than 100 µM; in [6], more than 100 µM. In addition, the TGI in experiment [7] is more than 100 µM; in experiment [8] it was more than 100 µM; in experiment [9], 52.7 µM; in experiment [10], 44.6 µM.

As to `Cc1ccc(NC(=O)c2cc(S(=O)(=O)Nc3nnc(-c4ccccc4)c(-c4ccccc4)n3)c(SCc3ccccc3)cc2Cl)cc1`, the GI50 in experiment [1] is 13.7 µM; in experiment [2] it was 20.4 µM; in experiment [3] it was 19.4 µM; in [4] it was 33.9 µM; in [5], 13.3 µM; in experiment [6] it was 17.5 µM. Moreover, the GI50 in experiment [7] was 17.2 µM; in [8] it was 18.2 µM; in [9], 42.4 µM; in experiment [10], 49 µM. Besides, the TGI in [1] was 28.7 µM; in experiment [2], 41.2 µM; in experiment [3], 42.2 µM; in experiment [4] it was more than 100 µM; in experiment [5], 28.6 µM; in [6], 35.1 µM. In addition, the TGI is 41.6 µM in experiment [7], 43.9 µM in experiment [8], more than 100 µM in [9] and more than 100 µM in experiment [10].
